Experimental data taken from US20240150293A1, “SPIROCYCLOHEXANE DERIVATIVES, PHARMACEUTICAL COMPOSITIONS CONTAINING THEM AND THEIR USES AS ANTI-APOPTOTIC INHIBITORS” (LES LABORATOIRES SERVIER, priority 2021, published 2024).

What follows are molecules tested against Mcl-1 protein (UniProtKB Q07820) (Homo sapiens (Human), UniProt Q07820) (assay: Inhibition of Mcl-1 by the fluorescence polarisation assay (Example A, Method A)). Conditions: fluorescence polarization assay.
Type: binding
Outline: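 Protein (5 nM) and fluorescein-tagged peptide tracer (1 nM) incubated with 11-point compound series for 2 h at room temperature in HEPES/NaCl/Tween 20 buffer, pH 7.4, 5% DMSO. Displacement read as decrease in polarisation; IC50 fitted by 4-parameter logistic, converted to Ki (cKi or eKi).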

Sequence of Mcl-1 protein (Q07820 whole entry): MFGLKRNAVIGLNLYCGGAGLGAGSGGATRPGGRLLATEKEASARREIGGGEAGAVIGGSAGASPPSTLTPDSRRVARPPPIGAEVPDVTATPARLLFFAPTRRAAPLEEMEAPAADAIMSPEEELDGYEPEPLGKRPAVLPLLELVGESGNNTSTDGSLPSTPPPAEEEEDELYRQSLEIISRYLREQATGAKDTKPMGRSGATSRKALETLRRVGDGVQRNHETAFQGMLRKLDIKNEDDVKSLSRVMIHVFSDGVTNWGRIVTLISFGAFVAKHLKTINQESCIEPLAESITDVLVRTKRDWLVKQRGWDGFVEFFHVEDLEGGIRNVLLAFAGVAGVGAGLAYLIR

In order of rising Ki:
1. O=C(O)[C@]1(Nc2cccc(Cl)c2)CC[C@@]2(CC1)c1ccccc1CC2CCCOc1ccncc1F (stereo partly shown) [Example 432, (1r,4r)-4-(3-chloroanilino)-2′-{3-[(3-fluoropyridin-4-yl)oxy]propyl}-2′,3′-dihydrospiro[cyclohexane-1,1′-indene]-4-carboxylic acid]  38.9 nM
2. O=C(O)[C@]1(Nc2cccc(Cl)c2)CC[C@]2(CC1)C(c1cccc(Oc3ccccc3)c1)=Cc1ccccc12 [Example 300, (1s,4s)-4-(3-chloroanilino)-2′-(3-phenoxyphenyl)spiro[cyclohexane-1,1′-indene]-4-carboxylic acid]  174 nM
3. O=C(O)[C@]1(Nc2cccc(Cl)c2)CC[C@]2(CC1)C(Br)=Cc1cc(Cl)ccc12 [Example 135, (1s,4s)-2′-bromo-5′-chloro-4-(3-chloroanilino)spiro[cyclohexane-1,1′-indene]-4-carboxylic acid]  200 nM
4. O=C(O)[C@]1(Nc2cccc(Cl)c2)CC[C@@]2(CC1)c1ccccc1CC2CCCOc1cc(F)cc(Cl)c1 (stereo partly shown) [Example 430, (1r,4r)-4-(3-chloroanilino)-2′-[3-(3-chloro-5-fluorophenoxy)propyl]-2′,3′-dihydrospiro[cyclohexane-1,1′-indene]-4-carboxylic acid]  206 nM
5. O=C(O)[C@]1(Nc2cccc(Cl)c2)CC[C@@]2(CC1)c1ccccc1CC2CCCOc1ccccc1 (stereo partly shown) [Example 423, (1r,4r)-4-(3-chloroanilino)-2′-(3-phenoxypropyl)-2′,3′-dihydrospiro[cyclohexane-1,1′-indene]-4-carboxylic acid]  224 nM
6. CC1CCc2nccc(OCCCC3Cc4ccccc4[C@]34CC[C@@](Nc3ccccc3)(C(=O)O)CC4)c21 (stereo partly shown) [Example 477, (1r,4r)-4-anilino-2′-{3-[(5-methyl-6,7-dihydro-5H-cyclopenta[b]pyridin-4-yl)oxy]propyl}-2′,3′-dihydrospiro[cyclohexane-1,1′-indene]-4-carboxylic acid]  236 nM
7. O=C(O)[C@]1(Nc2cccc(Cl)c2)CC[C@]2(CC1)C(Br)=Cc1ccc(F)cc12 [Example 139, (1s,4s)-2′-bromo-4-(3-chloroanilino)-6′-fluorospiro[cyclohexane-1,1′-indene]-4-carboxylic acid]  265 nM
8. O=C(O)[C@]1(Nc2cccc(Cl)c2)CC[C@@]2(CC1)c1ccccc1CC2CCCSc1ccncc1 (stereo partly shown) [Example 399, (1r,4r)-4-(3-chloroanilino)-2′-{3-[(pyridin-4-yl)sulfanyl]propyl}-2′,3′-dihydrospiro[cyclohexane-1,1′-indene]-4-carboxylic acid]  299 nM
9. O=C(O)[C@]1(Nc2cccc(Cl)c2)CC[C@@]2(CC1)c1ccccc1CC2c1cccc(OCC2CC2)c1 (single isomer, unassigned) [Example 354, (1r,4r)-4-(3-chloroanilino)-2′-[3-(cyclopropylmethoxy)phenyl]-2′,3′-dihydrospiro[cyclohexane-1,1′-indene]-4-carboxylic acid]  402 nM
10. O=C(O)[C@]1(Nc2cccc(Cl)c2)CC[C@@]2(CC1)c1ccccc1CC2c1ccc(Oc2cccnc2)cc1 (stereo partly shown) [Example 367, (1r,4r)-4-(3-chloroanilino)-2′-{4-[(pyridin-3-yl)oxy]phenyl}-2′,3′-dihydrospiro[cyclohexane-1,1′-indene]-4-carboxylic acid]  443 nM
11. O=C(O)[C@]1(Nc2cccc(Cl)c2)CC[C@]2(CC1)C(c1cccc(OC(F)(F)F)c1)=Cc1ccccc12 [Example 314, (1s,4s)-4-(3-chloroanilino)-2′-[3-(trifluoromethoxy)phenyl]spiro[cyclohexane-1,1′-indene]-4-carboxylic acid]  528 nM
12. Cc1ccc(CCOCC2=Cc3ccccc3[C@]23CC[C@@](Nc2cccc(Cl)c2)(C(=O)O)CC3)cc1 [Example 416, (1s,4s)-4-(3-chloroanilino)-2′-{[2-(4-methylphenyl)ethoxy]methyl}spiro[cyclohexane-1,1′-indene]-4-carboxylic acid]  623 nM
13. O=C(O)[C@]1(Nc2cccc(Cl)c2)CC[C@@]2(CC1)c1ccccc1CC2c1ccccc1 (single isomer, unassigned) [Example 328, (1r,4r)-4-(3-chloroanilino)-2′-phenyl-2′,3′-dihydrospiro[cyclohexane-1,1′-indene]-4-carboxylic acid]  677 nM
14. O=C(O)[C@]1(Nc2cccc(Cl)c2)CC[C@]2(CC1)C(CCNc1ccccc1)=Cc1ccccc12 [Example 166, (1r,4r)-2′-(2-anilinoethyl)-4-(3-chloroanilino)spiro[cyclohexane-1,1′-indene]-4-carboxylic acid]  688 nM
15. COc1cc(Cl)cc(C2Cc3ccccc3[C@]23CC[C@@](Nc2cccc(Cl)c2)(C(=O)O)CC3)c1 (single isomer, unassigned) [Example 347, (1r,4r)-4-(3-chloroanilino)-2′-(3-chloro-5-methoxyphenyl)-2′,3′-dihydrospiro[cyclohexane-1,1′-indene]-4-carboxylic acid]  1130 nM
16. CC1=Cc2cc(Cl)ccc2C12CCC(Nc1cccc(Br)c1)(C(=O)O)CC2 (stereo not shown) [Example 124, 4-(3-bromoanilino)-5′-chloro-2′-methylspiro[cyclohexane-1,1′-indene]-4-carboxylic acid]  1290 nM
17. O=C(O)[C@]1(Nc2cccc(Cl)c2)CC[C@@]2(CC1)c1ccccc1CC2CCCS(=O)(=O)c1ccccc1 (stereo partly shown) [Example 398, (1r,4r)-2′-[3-(benzenesulfonyl)propyl]-4-(3-chloroanilino)-2′,3′-dihydrospiro[cyclohexane-1,1′-indene]-4-carboxylic acid]  1310 nM
18. COc1ccc2c(c1)[C@]1(CC[C@@](Nc3cccc(Cl)c3)(C(=O)O)CC1)C(c1cccc(C)c1)=C2 [Example 366, (1r,4r)-4-(3-chloroanilino)-6′-methoxy-2′-(3-methylphenyl)spiro[cyclohexane-1,1′-indene]-4-carboxylic acid]  1390 nM
19. O=C(O)[C@]1(Nc2cccc(Cl)c2)CC[C@]2(CC1)C(c1cccc(O)c1)=Cc1ccccc12 [Example 304, (1s,4s)-4-(3-chloroanilino)-2′-(3-hydroxyphenyl)spiro[cyclohexane-1,1′-indene]-4-carboxylic acid]  1740 nM
20. O=C(O)[C@]1(Nc2cccc(Cl)c2)CC[C@@]2(CC1)c1ccccc1C[C@H]2C1CCC1 [Example 100, (1r,2′S,4S)-4-(3-chloroanilino)-2′-cyclobutyl-2′,3′-dihydrospiro[cyclohexane-1,1′-indene]-4-carboxylic acid]  2620 nM
21. O=C(O)[C@]1(Nc2cccc(Cl)c2)CC[C@]2(CC1)C(C1CCC1)=Cc1ccccc12 [Example 96, (1r,4r)-4-(3-chloroanilino)-2′-cyclobutylspiro[cyclohexane-1,1′-indene]-4-carboxylic acid]  4500 nM
22. CCC1=C(C)[C@]2(CC[C@@](Nc3cccc(Cl)c3)(C(=O)O)CC2)c2ccccc21 [Example 206, (1s,4s)-4-(3-chloroanilino)-3′-ethyl-2′-methylspiro[cyclohexane-1,1′-indene]-4-carboxylic acid]  4680 nM
23. O=C(O)[C@]1(Nc2cccc(Cl)c2)CC[C@@]2(CC1)c1ccccc1CC2c1ccccc1 (single isomer, unassigned) [Example 327, (1r,4r)-4-(3-chloroanilino)-2′-phenyl-2′,3′-dihydrospiro[cyclohexane-1,1′-indene]-4-carboxylic acid]  7140 nM
24. Cc1noc(C)c1C1Cc2ccccc2C12CCC(Nc1cccc(Br)c1)(C(=O)O)CC2 (single isomer, unassigned) [Example 231, 4-(3-bromoanilino)-2′-(3,5-dimethyl-1,2-oxazol-4-yl)-2′,3′-dihydrospiro[cyclohexane-1,1′-indene]-4-carboxylic acid]  7720 nM
25. O=C(O)[C@]1(Nc2cccc(Cl)c2)CC[C@@]2(CC1)c1ccccc1CC2[C@H]1C[C@@H]1COc1ccccc1 (relative stereo) [Example 110, (1r,4r)-4-(3-chloroanilino)-2′-[(1R*,2S*)-2-(phenoxymethyl)cyclopropyl]-2′,3′-dihydrospiro[cyclohexane-1,1′-indene]-4-carboxylic acid]  8450 nM
26. Cc1ccc(C2Cc3ccccc3[C@]23CC[C@@](Nc2cccc(Cl)c2)(C(=O)O)CC3)cc1 (single isomer, unassigned) [Example 307, (1r,4r)-4-(3-chloroanilino)-2′-(4-methylphenyl)-2′,3′-dihydrospiro[cyclohexane-1,1′-indene]-4-carboxylic acid]  9170 nM
27. O=C(O)[C@]1(Nc2cccc(Cl)c2)CC[C@@]2(CC1)c1ccccc1CC2c1cccc(OCC2CC2)c1 (single isomer, unassigned) [Example 355, (1r,4r)-4-(3-chloroanilino)-2′-[3-(cyclopropylmethoxy)phenyl]-2′,3′-dihydrospiro[cyclohexane-1,1′-indene]-4-carboxylic acid]  9960 nM
28. CN1c2ccc(/C=C/Cc3ccccc3)cc2[C@]2(CC[C@](Nc3cccc(Br)c3)(C(=O)O)CC2)C1=O [Example 19, (1r,4r)-4-(3-bromoanilino)-1′-methyl-2′-oxo-5′-[(1E)-3-phenylprop-1-en-1-yl]-1′,2′-dihydrospiro[cyclohexane-1,3′-indole]-4-carboxylic acid]  21100 nM
29. O=C(O)[C@]1(Nc2cccc(Br)c2)CC[C@@]2(CC1)C(=O)Nc1ccccc12 [Example 1, (1r,4r)-4-(3-bromoanilino)-2′-oxo-1′,2′-dihydrospiro[cyclohexane-1,3′-indole]-4-carboxylic acid]  23300 nM
30. COc1cc(OC)cc(C2=Cc3ccccc3C23CCC(Nc2cccc(Br)c2)(C(=O)O)CC3)c1 (single isomer, unassigned) [Example 237, 4-(3-bromoanilino)-2′-(3,5-dimethoxyphenyl)spiro[cyclohexane-1,1′-indene]-4-carboxylic acid]  89000 nM
31. O=C(O)C1(Nc2cccc(Cl)c2)CCC2(C=Cc3cccnc32)CC1 (single isomer, unassigned) [Example 72, 4-(3-chloroanilino)spiro[cyclohexane-1,7′-cyclopenta[b]pyridine]-4-carboxylic acid]  191000 nM
